In one assay the target is T1, human CH24H (Homo sapiens, UniProt Q9Y6A2).
T1 construct: Using Full-Length Mammalian Gene Collection No. 4819975 (Invitrogen) as a template; made in house; host or cells: FreeStyle 293-F cells, transient transfection with pcDNA3.1(+)/hCH24H; crude lysate supernatant
The assay is described as follows: Measurement of CH24H inhibitory activity (24-HC produced from [14C] cholesterol by human CH24H lysate). The assay is classed as biochemical. Conditions: test compound 1 μM, [14C] cholesterol 15 μM, 37° C., 5 hr, read-out: Inhibitory Rate in 1 μM (%). Here is the method: A plasmid DNA for expressing human CH24H in a FreeStyle 293 cell was produced as follows. Using Full-Length Mammalian Gene Collection No. 4819975 (Invitrogen) as a template, and the following two kinds of synthesized DNAs:
PCR was performed to amplify 91-1625 bp region of human CH24H (BCO22539). The obtained fragment was cloned using TOPO TA Cloning Kit (Invitrogen). The obtained fragment was subcloned to pcDNA3.1(+) digested with BamHI and XhoI to give a plasmid DNA for human CH24H expression (pcDNA3.1(+)/hCH24H).
The expression of human CH24H was performed using FreeStyle 293 Expression System (Invitrogen). According to the manual attached to FreeStyle 293 Expression System and using the plasmid DNA for human CH24H expression (pcDNA3.1(+)/hCH24H) constructed in Experimental Example 1, a transient expression using FreeStyle 293-F cell was performed. After transfection, the cells were cultured at 37° C., 8% CO2 with shaking at 125 rpm for 2 days. The cells were collected by centrifugation, and suspended in a suspension buffer (100 mM potassium phosphate (pH 7.4), 0.1 mM EDTA, 1 mM DTT, 20% Glycerol). The suspended product was disrupted by a polytron homogenizer (manufactured by Kinematica), and centrifuged at 9000×g for 10 min, and the supernatant was collected. The collected supernatant was cryopreserved (−80° C.) as a human CH24H lysate standard product.
For the measurement of CH24H inhibitory activity, using the human CH24H lysate prepared in Experimental Example 2, the amount of 24-HC produced from cholesterol by catalytic activity of CH24H was measured in the presence of a test compound, and compared with that measured in the absence of the test compound. That is, a test compound solution at various concentrations was mixed with a reaction buffer (50 mM potassium phosphate containing 0.1% BSA and Complete, EDTA-free, pH 7.4) and human CH24H lysate. Then, [^14C] cholesterol (53 mCi/mmol specific activity, 15 μM) was added, and CH24H reaction was performed at 37° C. for 5 hr. After completion of the reaction, a quenching solution consisting of chloroform/methanol/distilled water (2:2:1 v/v) was added, and the resulting 24-HC was extracted by shaking. The extract was applied to silica gel thin layer chromatography (ethyl acetate:toluene=4:6), and the obtained ^14C-24HC fraction was measured with BAS2500 (Fujifilm Corporation).
The inhibitory rate (%) was calculated from the ratio of radioactivity in the presence of a test compound relative to the radioactivity in the absence of the test compound.

The subject of assay [1] is 24-HC in the brain extract. The assay is described as follows: Quantification test of 24-HC in mouse brain after repeated oral administration. The assay is classed as in vivo. Conditions: female C57BL/6N mice, brain 24-HC at 16 hours after the third administration, relative to control group as 100%. Here is the method: Animals used were 6-week-old female C57BL/6N mice (3 mice/group). A test compound was suspended in a 0.5% aqueous methylcellulose [133-14255 WAKO] solution (1 mg/mL). The body weight of the mice was measured, and the solution was forcibly administered orally and repeatedly once a day for 3 days. At 16 hours after the third administration, half of the brain was harvested, and the amount of 24-HC was measured.
The wet weight of the brain was measured, and the brain was homogenized with 4-fold amount of saline. This solution was used as a brain extract. The 24-HC in the brain extract was extracted with an acetonitrile solution (98% acetonitrile, 1.98% methanol, 0.02% formic acid), and quantified by HPLC. The average value of 24-HC amount was calculated and the results are shown in relative values with the control group as 100%.

The mark [2] stands for this setting: 30 mg/kg orally once a day for 3 days.
Setting [3] is: 10 mg/kg orally once a day for 3 days.

T1 sequence (Q9Y6A2 whole entry): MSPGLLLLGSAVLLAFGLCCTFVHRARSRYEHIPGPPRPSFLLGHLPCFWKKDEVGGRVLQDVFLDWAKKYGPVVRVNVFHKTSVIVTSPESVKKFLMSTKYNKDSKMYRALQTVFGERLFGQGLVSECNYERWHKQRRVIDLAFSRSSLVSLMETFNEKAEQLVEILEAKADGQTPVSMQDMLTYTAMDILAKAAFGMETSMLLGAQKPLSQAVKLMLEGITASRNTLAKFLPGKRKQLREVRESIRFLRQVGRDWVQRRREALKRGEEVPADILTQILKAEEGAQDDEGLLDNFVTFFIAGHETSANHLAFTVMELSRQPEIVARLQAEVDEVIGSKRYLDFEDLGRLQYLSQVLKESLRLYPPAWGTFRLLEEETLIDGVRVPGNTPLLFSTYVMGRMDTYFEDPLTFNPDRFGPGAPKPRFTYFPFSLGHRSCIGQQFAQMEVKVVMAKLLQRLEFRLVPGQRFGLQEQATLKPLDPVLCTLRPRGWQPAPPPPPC

On to `COc1ccc(CN2CCN(C(=O)c3cc(C)ccc3-c3ccncc3)CC2)cc1` [Example 3, (4-(4-methoxybenzyl)piperazin-1-yl)(5-methyl-2-(pyridin-4-yl)phenyl)methanone], for which, on human CH24H, the inhibition at 1 µM was 87%. The same measure, in the same setting: under `c1ccc(CN2CCC(Oc3cccnc3-c3ccncc3)CC2)cc1` [Example 4, 3-((1-benzylpiperidin-4-yl)oxy)-2,4′-bipyridine] stands 86%; under `Fc1ccc(OC2CCN(Cc3ccccc3)CC2)c(-c2ccncc2)c1` [Example 5, 4-(2-((1-benzylpiperidin-4-yl)oxy)-5-fluorophenyl)pyridine], 92%; under `c1ccc(CN2CCC(Oc3ccccc3-c3ccncn3)CC2)cc1` [Example 15, 4-(2-((1-benzylpiperidin-4-yl)oxy)phenyl)pyrimidine], 94%. Regarding `Cn1ccnc1CN1CCC(Oc2ccccc2-c2ccncc2)CC1` [Example 16, 4-(2-((1-((1-methyl-1H-imidazol-2-yl)methyl)piperidin-4-yl)oxy)phenyl)pyridine], the inhibition at 1 µM on human CH24H turned out to be 93%. On the same count and under the same terms, for `CN(C)C(=O)CN1CCC(Oc2ccccc2-c2ccncc2)CC1` [Example 20, N,N-dimethyl-2-(4-(2-(pyridin-4-yl)phenoxy)piperidin-1-yl)acetamide] the value was 83%.

With `Cn1cc(CN2CCC(Oc3cccnc3-c3ccncc3)CC2)cn1` [Example 22, 3-((1-((1-methyl-1H-pyrazol-4-yl)methyl)piperidin-4-yl)oxy)-2,4′-bipyridine], the inhibition at 1 µM at human CH24H came to 89%. Also, in assay [1] (setting [2]), the “Brain 24-HC level relative to control (%)” value was 77%. `COc1ccc(CN2CCN(S(=O)(=O)c3ccc(F)cc3-c3ccncc3)CC2)cc1` [Example 29, 1-((4-fluoro-2-(pyridin-4-yl)phenyl)sulfonyl)-4-(4-methoxybenzyl)piperazine]: the inhibition at 1 µM at human CH24H is 59%. On the same count and under the same terms, under `FC1(F)CN(Cc2ccccc2)CCC1Oc1ccccc1-c1ccncn1` (stereo not shown) [Example 34, 4-(2-((1-benzyl-3,3-difluoropiperidin-4-yl)oxy)phenyl)pyrimidine] stands 91%; under `O=C(CN1CCC(Oc2cccnc2-c2ccncc2)CC1)N1CCOCC1` [Example 38, 2-(4-(2,4′-bipyridin-3-yloxy)piperidin-1-yl)-1-(morpholin-4-yl)ethanone], 84%. With `Cn1cc(CN2CCC(Oc3nccnc3-c3ccncc3)CC2)cn1` [Example 40, 2-((1-((1-methyl-1H-pyrazol-4-yl)methyl)piperidin-4-yl)oxy)-3-(pyridin-4-yl)pyrazine], the inhibition at 1 µM on human CH24H was found to be 88%. Moreover, in assay [1] (setting [3]), the “Brain 24-HC level relative to control (%)” value amounted to 84%. The corresponding values for `c1cnc(-c2ccncc2)c(OC2CCN(Cc3cscn3)CC2)c1` [Example 47, 3-((1-(1,3-thiazol-4-ylmethyl)piperidin-4-yl)oxy)-2,4′-bipyridine] are 90% and 75%. On to `CCN(CC)C(=O)CN1CCC(Oc2cccnc2-c2ccncc2)CC1` [Example 49, 2-(4-(2,4′-bipyridin-3-yloxy)piperidin-1-yl)-N,N-diethylacetamide], for which the inhibition at 1 µM on human CH24H worked out at 85%.

Take `CN(C)C(=O)CN1CCC(Oc2nccnc2-c2ccncc2)C(F)(F)C1` (stereo not shown) [Example 54, 2-(3,3-difluoro-4-((3-(pyridin-4-yl)pyrazin-2-yl)oxy)piperidin-1-yl)-N,N-dimethylacetamide]: on human CH24H, the inhibition at 1 µM turned out to be 79%. The “Brain 24-HC level relative to control (%)” value in assay [1] (setting [3]) turned out to be 73%.

As to `O=C1CN(Cc2ccc(F)cc2)CCN1Cc1cccnc1-c1ccncc1` [Example 55, 1-(2,4′-bipyridin-3-ylmethyl)-4-(4-fluorobenzyl)piperazin-2-one], at human CH24H, the inhibition at 1 µM is 53%. Same read-out and setting: under `c1ccc(CN2CCC(Oc3cccnc3-c3ccncc3)C2)cc1` (stereo not shown) [Example 61, 3-((1-benzylpyrrolidin-3-yl)oxy)-2,4′-bipyridine] stands 89%; under `COc1ccc(S(=O)(=O)N2CCC(Oc3cccnc3-c3ccncc3)C2)cc1` (stereo not shown) [Example 64, 3-((1-((4-methoxyphenyl)sulfonyl)pyrrolidin-3-yl)oxy)-2,4′-bipyridine], 92%; under `O=C(C1CC1)N1CCC(Oc2cccnc2-c2ccncc2)CC1` [Example 67, (4-(2,4′-bipyridin-3-yloxy)piperidin-1-yl)(cyclopropyl)methanone], 80%. Regarding `Cn1cc(S(=O)(=O)N2CCC(Oc3cccnc3-c3ccncc3)C2)cn1` (stereo not shown) [Example 71, 3-((1-((1-methyl-1H-pyrazol-4-yl)sulfonyl)pyrrolidin-3-yl)oxy)-2,4′-bipyridine], on human CH24H, the inhibition at 1 µM was found to be 89%. Besides, in assay [1] (setting [2]), the “Brain 24-HC level relative to control (%)” value is reported as 86%. For `COc1ccc(CC(=O)N2CCC(Oc3ccccc3-c3ccncn3)CC2)cc1` [Example 74, 2-(4-methoxyphenyl)-1-(4-(2-(pyrimidin-4-yl)phenoxy)piperidin-1-yl)ethanone], on human CH24H, the inhibition at 1 µM was determined as 88%. The same measure, in the same setting: under `Cn1cc(S(=O)(=O)N2CCC(Oc3cc(F)ccc3-c3ccncn3)C2)cn1` (stereo not shown) [Example 84, 4-(4-fluoro-2-((1-((1-methyl-1H-pyrazol-4-yl)sulfonyl)pyrrolidin-3-yl)oxy)phenyl)pyrimidine] stands 87%. Consider `O=S(=O)(N1CCOCC1)N1CCC(Oc2cccnc2-c2ccncc2)C1` (stereo not shown) [Example 85, 3-((1-(morpholin-4-ylsulfonyl)pyrrolidin-3-yl)oxy)-2,4′-bipyridine], for which, at human CH24H, the inhibition at 1 µM was 84%. Still for that read-out and setting: for `CCS(=O)(=O)N1CCC(Oc2cc(F)ccc2-c2ccncc2)C1` (stereo not shown) [Example 88, 4-(2-((1-(ethylsulfonyl)pyrrolidin-3-yl)oxy)-4-fluorophenyl)pyridine] the value was 82%; for `O=S(=O)(c1ccc(F)cc1)N1CCC(Oc2nccnc2-c2ccncc2)C1` (stereo not shown) [Example 110, 2-((1-((4-fluorophenyl)sulfonyl)pyrrolidin-3-yl)oxy)-3-(pyridin-4-yl)pyrazine], 89%.

In the case of `O=S(=O)(c1ccccc1)N1CCC(Oc2cccnc2-c2ccncc2)C1` (stereo not shown) [Example 120, 3-((1-(phenylsulfonyl)pyrrolidin-3-yl)oxy)-2,4′-bipyridine], the inhibition at 1 µM at human CH24H was determined as 94%. The same measure, in the same setting: for `c1ccc(CN2CCC(Oc3cccnc3-c3ccncc3)CC2)nc1` [Example 124, 3-((1-(pyridin-2-ylmethyl)piperidin-4-yl)oxy)-2,4′-bipyridine] the value was 95%.
